Source: patent publication EP0423707A2, “Platinum complexes” (Bristol-Myers Squibb Company, priority 1989, dated 1991)

Legend:
[1] = test system: B16-F10 murine melanoma cells; assay: In vitro cytotoxicity, crystal violet staining after 72 hours incubation; format: cell-based
Method: (§1) The cytotoxic activity of the platinum complexes were evaluated in vitro using B16-F10 murine melanoma cells and HCT-116 human colon carcinoma cells. The B16-F10 cell line was maintained cultured in Eagle's Minimum Essential Medium (MEM) with Earle's salts (Gibco; Grand Island, NY) enriched with 2 millimoles of L-glutamine, 2.06 millimoles of sodium pyruvate, insulin (0.26 units/ml), penicillin/streptomycin (10 units/milliliter and 10 micrograms/milliliter, respectively), MEM non-essential amino acids (0.6% Gibco; Grand Island, NY), and 10% fetal bovine serum (Hyclone; Logan, UT). The HCT-116 cells were grown in McCoy's 5A medium (modified, Gibco; Grand Island, NY) supplemented with 2 millimoles of L-glutamine, 0.12 millimoles of L-serine, 0.17 millimoles of asparagine, 1.5 millimoles of sodium pyruvate, MEM essential amino acids (0.67%, Gibco; Grand Island, NY), MEM vitamins (0.6%, Gibco; Grand Island, NY), fetal calf serum (10%, Hyclone; Logan, UT), and penicillin/streptomycin (10 units/milliliter and 10 micrograms/milliter, respectively). Both cell lines were incubated at 37°C in 5% CO₂/balance air high-humidity incubator.
(§2) Logarithmically growing cells were then harvested by mild trypsinization, and 4000 cells were added to each well of a 96-well microtiter plate (Costar; Cambridge, MA). The plates were incubated at 37°C in 5% CO₂ overnight to permit cell attachment to the plate. The cells were then treated with a platinum complex according to the present invention, cisplatin, or iproplatin and then incubated for 72 hours. After incubating, the plates were inverted and shaken to remove media, drug, and detached cells. Formalin (10%) in phosphate buffered saline was added and the cells fixed for 10 minutes. The fixative was then removed, the plates air dried, stained with 0.0075% crystal violet for 15 minutes, washed twice, and air dried. The stain is solubilized with 0.2 milliliters of 0.2 Molar AcOH/EtOH (1:1) and optical densities determined using a Dynatech MR600 microtiter plate reader (Dynatech; Chantilly, VA). IC50 values are calculated by linear regression analysis of absorption data.
(§3) For the above described in vitro cytotoxicity studies, the compounds are dissolved or suspended, depending on their solubility, in 0.9% Sodium Chloride or 10% ethanol in 0.9% Sodium Chloride. The compounds are prepared for in vivo treatment by dissolving or suspending in water (minimal amounts of Tween 80), 0.9% Sodium Chloride, or 10% ethanol in 0.9% Sodium Chloride. Olive oil or cotton seed oil are used for in vivo studies when the compounds are oil soluble compounds (see, for example, in Table 8, an oil soluble compound in olive oil, Example 9 (2-ethylhexanoate derivative), below).

[2] = test system: HCT-116 human colon carcinoma cells; assay: as above; format: cell-based; conditions: HCT-116 cells
Method: as §1, §2, §3

L1210 murine leukemia [3] = assay: Activity against L1210 murine leukemia, intraperitoneal implanted tumor; format: in vivo, CDF1 mice; conditions: single intraperitoneal dose on Day 1, at the dose producing the maximum effect, median survival time vs saline controls
Method: (§4) The platinum complexes according to the present invention were tested for antitumor activity against L1210 murine leukemia. CDF1 mice weighing 20 grams were inoculated intraperitoneally or intracerebrally with 10⁶ or 10⁵ ascites cells of L1210 leukemia, respectively.
(§5) Drug administration was initiated the day following intra-peritoneal tumor implantation or 3 days following intracerebral implant. The complexes were administered at various dose levels by intraperitoneal injection. Groups of 4 to 6 mice were used for each dose level, and they were treated with a single dose of the complex on the treatment day. A group of 10 saline treated control mice were included in each experiment. Cisplatin and iproplatin treated groups were included as positive controls in each experiment.
(§6) The mice were weighed before treatment and again on day 5 or 6, and the average weight change was used as a measure of toxicity. The animals were observed daily for mortality, and the experiments terminated after 30 days. Antitumor activity was determined based on percent T/C, which is the ratio of the median survival time of the drug treated group to the median survival time of the saline treated control group times 100.
(§7) A complex was considered active if it produced a T/C greater than or equal to 125 percent. […]

L1210 murine leukemia [4] = assay: Activity against L1210 murine leukemia, intracerebral implanted tumor; format: in vivo, CDF1 mice; conditions: single intraperitoneal dose on Day 3, at the dose producing the maximum effect, median survival time vs saline controls
Method: as §4, §5, §6, §7

M5076 sarcoma = assay: Activity against M5076 sarcoma, subcutaneous implant; format: in vivo, BDF1 mice; conditions: Days 5, 9, 13, and 17, at the dose producing the maximum effect; for MAXIMUM % T/C: median survival time vs controls; for MAXIMUM T-C: median time for tumors to reach 1 gram relative to controls
Method: Platinum complexes according to the present invention were additionally evaluated for further antitumor activity against M5076 sarcoma. BDF1 mice, 8 per group, were inoculated subcutaneously with a fragment of M5076 sarcoma.
Intraperitoneal or intravenous treatment with the complexes was initiated 5 days after implant and was continued on days 9, 13, and 17 for a total of 4 treatments. From 4 to 6 doses were tested for each compound under study.
A saline treated control group and cisplatin treated groups were included in each experiment. The mice were observed daily for survivors, and the experiments terminated after 75-80 days.
Antitumor activity was determined based on a) median survival time of the drug treated mice relative to that of the controls (percent T/C) and b) the median time for tumors to reach 1 gram in drug treated mice relative to the controls (T-C). A complex was considered active if it produced a T-C greater than or equal to 13 days.
as §3

P388 murine leukemia = assay: Activity against P388 murine leukemia, intravenous inoculation, oral treatment; format: in vivo, CDF1 mice; conditions: administered orally (by gavage) 1 time on Day 1; at the dose producing the maximum effect; median survival time vs saline controls
Method: The platinum complexes according to the present invention were tested for antitumor activity against P388 murine leukemia. CDF1 mice weighing 20 grams were inoculated intravenously with 10⁶ ascites cells of P388 leukemia.
Drug administration of the platinum complexes was initiated on the day following the intravenous tumor inoculation. The complexes were administered at various dosage levels by oral gavage. Groups of 6 mice were used for each dose level, and they were treated with a single dose of the complex on the treatment day. A group of 10 saline treated control mice were included in each experiment. Cisplatin treated groups were included as positive controls in each experiment.
as §6
A complex was considered active if it produced a T/C greater than or equal to 125 percent.
For the above described in vitro cytotoxicity studies, the compounds are dissolved or suspended, depending on their solubility, in 0.9% Sodium Chloride or 10% ethanol in 0.9% Sodium Chloride. […]

| Compound | IC50 B16 [1] | IC50 HCT116 [2] | MAXIMUM % T/C (L1210 murine leukemia [3]) | MAXIMUM % T/C (L1210 murine leukemia [4]) | MAXIMUM % T/C (M5076 sarcoma; route ip) | MAXIMUM T-C (M5076 sarcoma; route ip) | MAXIMUM % T/C (M5076 sarcoma; route iv) | MAXIMUM T-C (M5076 sarcoma; route iv) | MAXIMUM % T/C (P388 murine leukemia) |
| --- | --- | --- | --- | --- | --- | --- | --- | --- | --- |
| N.N.[Cl][Pt][Cl] [Cisplatin] | 5.4-7.3 micrograms/milliter | 4.2-4.5 micrograms/milliter | 143-207% | 114% | 126% | 33 days | 114-126% | 25 to 27.3 days | 173% |
| Iproplatin | 66.8-243 micrograms/milliter | 20.2-31.2 micrograms/milliter | 143-171% | 157% | 160+^b % | 34.5 days | – | – | – |
